{
  "source": "patent EP0341603A2",
  "about": "“Atrial peptide derivatives” (ABBOTT LABORATORIES, priority 1988, dated 1989)",
  "origin": "cited, not measured here",
  "conditions": "relative to furosemide",
  "note": "Bridge positions count the residues as written; N and C are the ends. Ends that are not written are not given here.",
  "data": [
    {"substance": "alpha-hANP: alpha-human atrial natriuretic polypeptide isolated from human atrium, a polypeptide consisting of 28 amino acids (SLRRSSCFGGRMDRIGAQSGLGCNSFRY; disulfide 7-23 (inferred); ends not checked; UniProt P01160 124-151, looked up)", "values": [
      {"measurement": "diuretic action, times as strong as that of furosemide", "result": "about 1000 times"}
    ]}
  ]
}
